Measurements published in patent US11878276B2, “Nanobiocatalyst and nanobiocatalytic membrane” (University of Vermont and State Agricultural College, priority 2017, dated 2024).

System: Gram positive and Gram negative bacteria
Assay: minimum inhibitory concentration of bismuth
Assay type: cell-based
Method: In particular, in one embodiment, antimicrobial lipophilic bismuth dimercaptopropanol nanoparticles (BisBAL NPs) may be used. In one embodiment, the bismuth concentration on the membrane surface may be approximately 0.437 g/m^2. In one embodiment, the toxic range of Bi^+3 concentration (minimum inhibitory concentration) for Gram positive and Gram negative bacteria is 15-16 μM. […] In one embodiment, the bismuth nanoparticles are roughly spherical and are approximately 20 nm wide. […] In another embodiment, other antibacterial nanoparticles are also contemplated, such as, but not limited to Zinc Oxide (ZnO), Copper Oxide (CuO), Iron Oxide (Fe2O3), and Silver (Ag).

## [Bi+3] [Bi^+3]
  toxic range of Bi^+3 concentration (minimum inhibitory concentration): 15 to 16 µM
